# Assay results reported in patent US20090233907A1, “Pyridopyrimidine Derivatives and Their Use as PDE4 Inhibitors” (ASTRAZENECA AB, priority 2006, published 2009).
# Molecular target: recombinant Human Phosphodiesterase B2 (PDE4B2) (Homo sapiens, UniProt Q07343)
# Assay: Human Phosphodiesterase B2 Alpha Screen Assay
# Format: biochemical
# Conditions: Alpha Screen cAMP assay
# Procedure: Human Phosphodiesterase B2 Alpha Screen Assay
# The assay uses recombinant Human Phosphodiesterase B2 (PDE4B2) produced in house (PrAZL0133), stored at −20° C. The substrate uses cAMP, part of the Alpha Screen cAMP kit (Perkin Elmer, Cat# 6760625M), stored at 4° C. The Alpha Screen kit also includes biotinylated cAMP, acceptor and donor beads.
# The assay additions were as follows: Test compounds and controls were added to white 384-well flat-bottom plates (Greiner, Cat# 781075), 0.2 μl in 100% DMSO, followed by 10 μl PDE4B2 in reaction buffer. The reaction buffer constitution was: 50 mM Tris (pH 7.5), 8.3 mM MgCl2, 1.7 mM EGTA and 0.01% (w/v) Brij®35. The enzyme and the compounds were incubated at room temperature for 15 minutes. Then 10 μl cAMP in reaction buffer was added. The assay was stopped after 60 minutes incubation at room temperature by adding 10 μl acceptor beads in detection buffer with 40 mM EDTA. The detection buffer constitution was: 5 mM Tris (pH 7.5), 0.1% (w/v) BSA and 0.1% (v/v) Tween 20. This addition followed by an addition of 10 μl donor beads in detection buffer, with biotinylated cAMP. The plates were then incubated, dark at room temperature, for 5 hours followed by measurement on a Fusion™-α analyser. IC50 values (presented in Table 4) were determined using Xlfit curve fitting using model 205.
# recombinant Human Phosphodiesterase B2 (PDE4B2), sequence (Q07343 1-564 isoform Q07343-2): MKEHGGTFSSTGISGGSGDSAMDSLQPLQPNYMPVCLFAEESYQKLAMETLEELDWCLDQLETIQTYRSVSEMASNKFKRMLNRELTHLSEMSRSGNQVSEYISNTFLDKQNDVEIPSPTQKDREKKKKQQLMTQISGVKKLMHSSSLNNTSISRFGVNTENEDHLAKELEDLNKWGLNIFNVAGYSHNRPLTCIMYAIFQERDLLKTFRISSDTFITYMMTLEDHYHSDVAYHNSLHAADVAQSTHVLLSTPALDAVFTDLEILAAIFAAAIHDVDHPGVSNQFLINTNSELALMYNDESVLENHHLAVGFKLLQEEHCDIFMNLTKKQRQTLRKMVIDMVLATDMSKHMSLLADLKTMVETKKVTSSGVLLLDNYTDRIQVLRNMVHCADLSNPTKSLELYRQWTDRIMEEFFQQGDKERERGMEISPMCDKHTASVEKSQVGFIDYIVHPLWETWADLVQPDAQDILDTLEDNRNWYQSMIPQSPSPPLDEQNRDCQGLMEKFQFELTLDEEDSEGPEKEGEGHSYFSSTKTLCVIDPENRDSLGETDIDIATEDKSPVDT
row,SMILES,IC50 [nM]
1,"O=C(CNC(=O)c1ccccc1O)N[C@H]1CC[C@@H](n2c(=O)c3cc(F)cnc3n(C3CCSCC3)c2=O)CC1 [Example 6, N-[2-({cis-4-[6-fluoro-2,4-dioxo-1-(tetrahydro-2H-thiopyran-4-yl)-1,4-dihydropyrido[2,3-d]pyrimidin-3(2H)-yl]cyclohexyl}amino)-2-oxoethyl]-2-hydroxybenzamide]",1.02
2,"O=C(N[C@H]1CC[C@@H](n2c(=O)c3cc(F)cnc3n(C3CCSCC3)c2=O)CC1)c1cccc(O)c1 [Example 14, N-{cis-4-[6-fluoro-2,4-dioxo-1-(tetrahydro-2H-thiopyran-4-yl)-1,4-dihydropyrido[2,3-d]pyrimidin-3(2H)-yl]cyclohexyl}-3-hydroxybenzamide]",1.8
3,"O=C(N[C@H]1CC[C@@H](n2c(=O)c3cc(F)cnc3n(C3CCSCC3)c2=O)CC1)c1ncccc1O [Example 20, N-{cis-4-[6-fluoro-2,4-dioxo-1-(tetrahydro-2H-thiopyran-4-yl)-1,4-dihydropyrido[2,3-d]pyrimidin-3(2H)-yl]cyclohexyl}-3-hydroxypyridine-2-carboxamide]",5.9
4,"O=C(Cc1ccc(O)cc1)N[C@H]1CC[C@@H](n2c(=O)c3cc(F)cnc3n(C3CCSCC3)c2=O)CC1 [Example 15, N-{cis-4-[6-fluoro-2,4-dioxo-1-(tetrahydro-2H-thiopyran-4-yl)-1,4-dihydropyrido[2,3-d]pyrimidin-3(2H)-yl]cyclohexyl}-2-(4-hydroxyphenyl)acetamide]",1.75
5,"O=C(N[C@H]1CC[C@@H](n2c(=O)c3cc(F)cnc3n(C3CCSC3)c2=O)CC1)C1CC1 (relative stereo) [Example 27, N-{cis-4-[6-fluoro-2,4-dioxo-1-(tetrahydro-3-thienyl)-1,4-dihydropyrido[2,3-d]pyrimidin-3(2H)-yl]cyclohexyl}cyclopropanecarboxamide]",10.7
6,"Cc1ccc(C(=O)N[C@H]2CC[C@@H](n3c(=O)c4cc(F)cnc4n(C4CCSC4)c3=O)CC2)c(O)c1 (relative stereo) [Example 31, N-{cis-4-[6-fluoro-2,4-dioxo-1-(tetrahydro-3-thienyl)-1,4-dihydropyrido[2,3-d]pyrimidin-3(2H)-yl]cyclohexyl}-2-hydroxy-4-methylbenzamide]",2.75
7,"Cc1ccc(C(=O)N[C@H]2CC[C@@H](n3c(=O)c4cc(F)cnc4n(C4CCSCC4)c3=O)CC2)cc1O [Example 10, N-{cis-4-[6-fluoro-2,4-dioxo-1-(tetrahydro-2H-thiopyran-4-yl)-1,4-dihydropyrido[2,3-d]pyrimidin-3(2H)-yl]cyclohexyl}-3-hydroxy-4-methylbenzamide]",1.12
8,"O=C(N[C@H]1CC[C@@H](n2c(=O)c3cc(F)cnc3n(C3CCSC3)c2=O)CC1)c1cn2ccccc2n1 (relative stereo) [Example 28, N-{cis-4-[6-fluoro-2,4-dioxo-1-(tetrahydro-3-thienyl)-1,4-dihydropyrido[2,3-d]pyrimidin-3(2H)-yl]cyclohexyl}imidazo[1,2-a]pyridine-2-carboxamide]",0.97
9,"O=C(N[C@H]1CC[C@@H](n2c(=O)c3cc(F)cnc3n(C3CCSCC3)c2=O)CC1)c1ccccc1 [Example 23, N-{cis-4-[6-fluoro-2,4-dioxo-1-(tetrahydro-2H-thiopyran-4-yl)-1,4-dihydropyrido[2,3-d]pyrimidin-3(2H)-yl]cyclohexyl}benzamide]",2.72
10,"O=C(N[C@H]1CC[C@@H](n2c(=O)c3cc(F)cnc3n(C3CCSC3)c2=O)CC1)c1cc(CO)ccc1O (relative stereo) [Example 29, N-{cis-4-[6-fluoro-2,4-dioxo-1-(tetrahydro-3-thienyl)-1,4-dihydropyrido[2,3-d]pyrimidin-3(2H)-yl]cyclohexyl}-2-hydroxy-5-(hydroxymethyl)benzamide]",5.51
11,"O=C(N[C@H]1CC[C@@H](n2c(=O)c3cc(F)cnc3n(C3CCSCC3)c2=O)CC1)C1CCCCC1 [Example 18, N-{cis-4-[6-fluoro-2,4-dioxo-1-(tetrahydro-2H-thiopyran-4-yl)-1,4-dihydropyrido[2,3-d]pyrimidin-3(2H)-yl]cyclohexyl}cyclohexanecarboxamide]",2.15
12,"O=C(N[C@H]1CC[C@@H](n2c(=O)c3cc(F)cnc3n(C3CCSC3)c2=O)CC1)c1ccccc1O (relative stereo) [Example 30, N-{cis-4-[6-fluoro-2,4-dioxo-1-(tetrahydro-3-thienyl)-1,4-dihydropyrido[2,3-d]pyrimidin-3(2H)-yl]cyclohexyl}-2-hydroxybenzamide]",6.45
13,"O=C(N[C@H]1CC[C@@H](n2c(=O)c3cc(F)cnc3n(C3CCSCC3)c2=O)CC1)c1ccc(O)cc1 [Example 16, N-{cis-4-[6-fluoro-2,4-dioxo-1-(tetrahydro-2H-thiopyran-4-yl)-1,4-dihydropyrido[2,3-d]pyrimidin-3(2H)-yl]cyclohexyl}-4-hydroxybenzamide]",1.69

# More lines, in order of falling IC50, values ahead:
row,IC50 [nM],SMILES
1,5.59,"O=C(N[C@H]1CC[C@@H](n2c(=O)c3cc(F)cnc3n(C3CCSCC3)c2=O)CC1)c1cccn2ccnc12 [Example 25, N-{cis-4-[6-fluoro-2,4-dioxo-1-(tetrahydro-2H-thiopyran-4-yl)-1,4-dihydropyrido[2,3-d]pyrimidin-3(2H)-yl]cyclohexyl}imidazo[1,2-a]pyridine-8-carboxamide]"
2,4.72,"CC(C)CC(=O)N[C@H]1CC[C@@H](n2c(=O)c3cc(F)cnc3n(C3CCSCC3)c2=O)CC1 [Example 21, N-{cis-4-[6-fluoro-2,4-dioxo-1-(tetrahydro-2H-thiopyran-4-yl)-1,4-dihydropyrido[2,3-d]pyrimidin-3(2H)-yl]cyclohexyl}-3-methylbutanamide]"
3,4.59,"O=C(N[C@H]1CC[C@@H](n2c(=O)c3cc(F)cnc3n(C3CCSCC3)c2=O)CC1)C1CC1 [Example 1, N-{cis-4-[6-Fluoro-2,4-dioxo-1-(tetrahydro-2H-thiopyran-4-yl)-1,4-dihydropyrido[2,3-d]pyrimidin-3(2H)-yl]cyclohexyl}cyclopropanecarboxamide]"
4,3.75,"Cc1ccc(C(=O)N[C@H]2CC[C@@H](n3c(=O)c4cc(F)cnc4n(C4CCSCC4)c3=O)CC2)c(O)c1 [Example 9, N-{cis-4-[6-fluoro-2,4-dioxo-1-(tetrahydro-2H-thiopyran-4-yl)-1,4-dihydropyrido[2,3-d]pyrimidin-3(2H)-yl]cyclohexyl}-2-hydroxy-4-methylbenzamide]"
5,2.53,"O=C(CCc1cccc(O)c1)N[C@H]1CC[C@@H](n2c(=O)c3cc(F)cnc3n(C3CCSCC3)c2=O)CC1 [Example 19, N-{cis-4-[6-fluoro-2,4-dioxo-1-(tetrahydro-2H-thiopyran-4-yl)-1,4-dihydropyrido[2,3-d]pyrimidin-3(2H)-yl]cyclohexyl}-3-(3-hydroxyphenyl)propanamide]"
6,1.62,"O=C(Cc1cccc(O)c1)N[C@H]1CC[C@@H](n2c(=O)c3cc(F)cnc3n(C3CCSCC3)c2=O)CC1 [Example 8, N-{cis-4-[6-fluoro-2,4-dioxo-1-(tetrahydro-2H-thiopyran-4-yl)-1,4-dihydropyrido[2,3-d]pyrimidin-3(2H)-yl]cyclohexyl}-2-(3-hydroxyphenyl)acetamide]"
7,1.61,"COc1cc(C(=O)N[C@H]2CC[C@@H](n3c(=O)c4cc(F)cnc4n(C4CCSCC4)c3=O)CC2)ccc1O [Example 11, N-{cis-4-[6-fluoro-2,4-dioxo-1-(tetrahydro-2H-thiopyran-4-yl)-1,4-dihydropyrido[2,3-d]pyrimidin-3(2H)-yl]cyclohexyl}-4-hydroxy-3-methoxybenzamide]"
8,1.1,"O=C(N[C@H]1CC[C@@H](n2c(=O)c3cc(F)cnc3n(C3CCSCC3)c2=O)CC1)c1cn2ccccc2n1 [Example 2, N-{cis-4-[6-Fluoro-2,4-dioxo-1-(tetrahydro-2H-thiopyran-4-yl)-1,4-dihydropyrido[2,3-d]pyrimidin-3(2H)-yl]cyclohexyl}imidazo[1,2-a]pyridine-2-carboxamide]"
9,0.887,"O=C(N[C@H]1CC[C@@H](n2c(=O)c3cc(F)cnc3n(C3CCSCC3)c2=O)CC1)[C@H](O)C1CCCCC1 [Example 12, (2R)-2-cyclohexyl-N-{cis-4-[6-fluoro-2,4-dioxo-1-(tetrahydro-2H-thiopyran-4-yl)-1,4-dihydropyrido[2,3-d]pyrimidin-3(2H)-yl]cyclohexyl}-2-hydroxyacetamide]"
10,0.877,"O=C(N[C@H]1CC[C@@H](n2c(=O)c3cc(F)cnc3n(C3CCSCC3)c2=O)CC1)C(O)c1ccccc1 (relative stereo) [Example 22, N-{cis-4-[6-fluoro-2,4-dioxo-1-(tetrahydro-2H-thiopyran-4-yl)-1,4-dihydropyrido[2,3-d]pyrimidin-3(2H)-yl]cyclohexyl}-2-hydroxy-2-phenylacetamide]"
11,0.874,"COc1ccc(C(=O)N[C@H]2CC[C@@H](n3c(=O)c4cc(F)cnc4n(C4CCSCC4)c3=O)CC2)cc1O [Example 7, N-{cis-4-[6-fluoro-2,4-dioxo-1-(tetrahydro-2H-thiopyran-4-yl)-1,4-dihydropyrido[2,3-d]pyrimidin-3(2H)-yl]cyclohexyl}-3-hydroxy-4-methoxybenzamide]"
